Measured values: article PMC6014988, “Precision therapeutic targeting of human cancer cell motility” (Nature Communications, 2018)

Experiments:
HSP90β = target: T1, HSP90β (Homo sapiens, UniProt P08238+Q16543); assay: In vitro kinase assay, SGK3 phosphorylation of HSP90β; assay type: biochemical
T1 construct: made in house; host or cells: E. coli (HSP90β, CDC37); SGK3 purchased from Thermo Scientific #PV3859

[1] = system: human cord blood CD34+ stem cells; assay: Hematopoietic stem cell colony formation assay; assay type: cell-based
Experimental: Fourteen-day colony formation assays were conducted as described by us[39], using human cord blood CD34+ stem cells (AllCells Inc.), using MethoCultExpress™ colony growth media (StemCell Technologies Inc.), performed in replicates of N = 2.

[2] = system: protein phosphorylation in PC3-M and PC3 cells; assay: KinomeView phospho-motif antibody screen; assay type: cell-based, human; conditions: 10 µM, 3 days, ± TGFβ
Experimental: The Kinoview™ and PhosphoScan™ assays were performed by Cell Signaling Technology Inc.
Supplementary Figure 10. Proteomic analysis of the effects of KBU2046 on the kinome. (a-c) Screening for effects on the kinome. PC3-M cells were pre-treated with 10 µM KBU2046, genistein or vehicle control for 3 days, then with ± TGFβ, as indicated. Resultant cell lysate, as well as lysate from tumors from mice treated with 150 mg/kg KBU2046 or control mice (from manuscript Figure 2a), were then probed with the KinomeView® panel of antibodies by Western blot. In instances where KBU2046 was inhibiting protein phosphorylation in cells and in tumors, a repeat experiment of PC3-M cells was conducted (Experiment #2). In addition to including PC3-M cells, as in Experiment #1, Experiment #2 expanded to examine effects on PC3 cells. (a) The identification of an 83 kDa band of interest (red arrows). This constitutes the only change […]
as in tumor tissue. […] (c) All […]
other Western blots of phospho-motif antibodies that were evaluated on initial screen. NI = tumor not informative; this denotes a tumor sample that yielded an abnormal coomassie blue staining pattern. Data from this sample was therefore not considered further.
(also on this page, place not known: cat #C32G12; tPE cat #2981; sRXY, FXs NI NI cat #2351; tXR cat #23C8D12; RXRXX(s/t) NI NI)
(1 picture or pasted object on this page, not shown here)

[3] = target: T2, CDC37/HSP90β heterocomplex (Homo sapiens, UniProt P08238+Q16543); assay: DARTS assay with CDC37 and HSP90β combined; assay type: binding
T2 construct: made in house; host or cells: E. coli (Rosetta BL-21 for HSP90β, BL-21 DE-3 for CDC37)
Experimental: Fig. 5 KBU2046 stabilizes CDC37/HSP90β heterocomplexes. a KBU2046 stabilizes HSP90β/CDC37 heterocomplexes in a DARTS assay. Equimolar amounts of HSP90β and CDC37 protein were pre-incubated with KBU2046, and resultant thermolysin reaction products were detected by silver stain following SDS-PAGE. […] Atoms within 5 angstroms of KBU2046 are colored by element (carbon, green; nitrogen, blue; oxygen, red). d Potential surface of the whole CDC37/HSP90β dimer (color code: green—HSP90β; gray—CDC37; cyan—Arg167 from CDC37 bisecting the larger pocket and creating a new cleft into which KBU2046 binds)
Fluorescent thermal shift, isothermal titration calorimetry, and biolayer interferometry assays[46] were all performed as described by us using MEK4EE (37-399, S257E, T261E) cloned into pMCSG7 and KRX Competent E. coli cells (Promega Inc.) and above denoted full-length HSP90B and CDC37 vectors and Rosetta BL-21 and BL-21 DE-3 competent E. coli cells, respectively. DARTS assays were conducted as described, using equimolar amounts of CDC37 and HSP90β, thermolysin digestion, and silver stain visualization (ProteoSilver Silver Stain Kit, Sigma-Aldrich).

[4] = system: human prostate, breast, colon, and lung cancer cells; assay: Single-cell migration assay; assay type: cell-based; conditions: 10 µM, 3 days
Experimental: Human prostate metastatic cells (PC3, PC3-M), and HPV-transformed normal (1532NPTX, 1542NPTX) and primary cancer (1532CPTX, 1542CPTX) cells, were treated with 10 µM genistein (G), KBU2046 (46), or vehicle (CO), and after 3 days, cell invasion was measured. Values are mean ± SEM of a single experiment in replicates of N = 4, with similar findings in multiple separate experiments (also N = 4). c Single-cell migration. Cell migration was measured after treatment for 3 days with 10 µM KBU2046 or vehicle (control). Values are mean ± SEM of a single experiment in replicates of N = 24, with similar findings in a separate experiment (also N = 24). *Denotes Student’s t-test P value <0.05, compared to controls. d Human cord blood hematopoietic stem cell colony formation assay. Values are the mean ± SD number of total, CFU-GM, CFU-GEMM, or BFU-E colonies at 14 days after treatment with KBU2046, from a single experiment in replicates of N = 2. e Induction of estrogen-responsive genes. Values are the mean ± SD of a single experiment, with similar results seen in a separate experiment, both in replicates of N = 2 […]

PC3 = assay: Three-day MTT cell growth inhibition assay, PC3; assay type: cell-based, human; conditions: Homo sapiens, PC-3, 72 h, 3 days
[5] = Three-day MTT cell growth inhibition assay, PC3; assay type: cell-based, human; conditions: human, PC3 cells

T2 sequence (P08238 whole entry): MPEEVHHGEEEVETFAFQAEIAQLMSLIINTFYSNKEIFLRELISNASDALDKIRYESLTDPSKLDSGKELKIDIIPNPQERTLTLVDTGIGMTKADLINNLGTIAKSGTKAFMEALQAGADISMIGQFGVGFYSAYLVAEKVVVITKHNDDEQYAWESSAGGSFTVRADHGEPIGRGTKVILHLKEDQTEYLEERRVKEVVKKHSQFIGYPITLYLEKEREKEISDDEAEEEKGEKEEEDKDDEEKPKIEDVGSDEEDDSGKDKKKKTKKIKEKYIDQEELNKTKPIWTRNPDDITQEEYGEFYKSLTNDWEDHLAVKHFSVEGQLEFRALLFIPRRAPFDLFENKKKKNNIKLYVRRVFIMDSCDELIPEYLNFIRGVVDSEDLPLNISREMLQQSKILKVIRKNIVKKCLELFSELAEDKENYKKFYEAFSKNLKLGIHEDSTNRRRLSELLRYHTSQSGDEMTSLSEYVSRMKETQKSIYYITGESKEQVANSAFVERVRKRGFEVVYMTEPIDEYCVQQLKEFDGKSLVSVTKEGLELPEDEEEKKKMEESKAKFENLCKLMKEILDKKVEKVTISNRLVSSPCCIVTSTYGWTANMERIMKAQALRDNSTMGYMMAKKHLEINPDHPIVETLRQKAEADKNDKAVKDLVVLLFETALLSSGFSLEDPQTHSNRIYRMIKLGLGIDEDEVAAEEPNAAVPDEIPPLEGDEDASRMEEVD
T2 sequence (Q16543 whole entry): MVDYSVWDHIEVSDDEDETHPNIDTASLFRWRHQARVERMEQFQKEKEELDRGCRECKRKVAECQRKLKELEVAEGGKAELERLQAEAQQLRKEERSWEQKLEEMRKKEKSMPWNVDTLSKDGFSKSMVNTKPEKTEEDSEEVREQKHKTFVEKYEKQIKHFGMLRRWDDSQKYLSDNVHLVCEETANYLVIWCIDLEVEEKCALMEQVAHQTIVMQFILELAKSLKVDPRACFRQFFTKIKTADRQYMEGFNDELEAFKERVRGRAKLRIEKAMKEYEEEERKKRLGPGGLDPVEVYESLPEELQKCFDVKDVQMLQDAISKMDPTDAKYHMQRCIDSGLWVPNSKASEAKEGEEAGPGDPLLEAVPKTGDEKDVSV
T1 sequence (P08238 whole entry): as the sequence (P08238 whole entry) above
T1 sequence (Q16543 whole entry): as the sequence (Q16543 whole entry) above

O=C1c2ccccc2OCC1c1ccc(F)cc1 (racemic) [KBU2046, (±)-3(4-fluorophenyl)chroman-4-one]
SGK3-mediated phosphorylation of HSP90β (HSP90β; HSP90β, CDC37, SGK3): phosphorylation was further increased | SGK3-mediated phosphorylation of HSP90β (HSP90β; with MAP3K6 added): decreases in the presence of KBU2046 | toxicity to human bone marrow stem cells ([1]; 14 days): not toxic | toxicity to stem cells ([1]; up to 40 micromolar for 14 days): no toxicity | changes in protein phosphorylation [2]: only a single change | concentration at which effects were evident ([3]; CDC37 band increased, HSP90β degradation product decreased): 10 nM | protection from thermolysin digestion ([3]; equimolar HSP90β and CDC37): protected both proteins from digestion | cell migration [4]: inhibited the migration | IC20 (PC3): > 50 µM | IC50 (PC3): > 50 µM | viability at 3 days, 50 µM [5]: 88.1%
